This assay concerns the target T1, recombinant full-length USP7 (Homo sapiens, UniProt Q93009).
T1 construct: A 25 μl reaction volume containing recombinant full-length USP7 (62 pM)
Briefly: USP7-mediated ubiquitin-rhodamine cleavage assay. The settings on record: recombinant full-length USP7 62 pM, ubiquitin-rhodamine 100 nM, 1 hour reaction at room temperature. Type of assay: biochemical. The procedure, abridged: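 Rhodamine fluorescence read-out after acetic acid stop; IC50 by 4-parameter nonlinear regression. Enzyme at 62 pM, substrate ubiquitin-rhodamine 100 nM final, 1 h at room temperature in the dark, after 30 min compound preincubation. Buffer: HEPES pH 7.3, NaCl, TCEP, BSA; 1% DMSO.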

Setting [1] is: 30-minute incubation with compound, read-out: Potency: USP7 IC50.
Where [2] appears, read: 30-minute pre-incubation, read-out: Potency (USP7 IC50).

Read-outs that look alike come from different tables or passages of the source.

T1 sequence (Q93009 whole entry): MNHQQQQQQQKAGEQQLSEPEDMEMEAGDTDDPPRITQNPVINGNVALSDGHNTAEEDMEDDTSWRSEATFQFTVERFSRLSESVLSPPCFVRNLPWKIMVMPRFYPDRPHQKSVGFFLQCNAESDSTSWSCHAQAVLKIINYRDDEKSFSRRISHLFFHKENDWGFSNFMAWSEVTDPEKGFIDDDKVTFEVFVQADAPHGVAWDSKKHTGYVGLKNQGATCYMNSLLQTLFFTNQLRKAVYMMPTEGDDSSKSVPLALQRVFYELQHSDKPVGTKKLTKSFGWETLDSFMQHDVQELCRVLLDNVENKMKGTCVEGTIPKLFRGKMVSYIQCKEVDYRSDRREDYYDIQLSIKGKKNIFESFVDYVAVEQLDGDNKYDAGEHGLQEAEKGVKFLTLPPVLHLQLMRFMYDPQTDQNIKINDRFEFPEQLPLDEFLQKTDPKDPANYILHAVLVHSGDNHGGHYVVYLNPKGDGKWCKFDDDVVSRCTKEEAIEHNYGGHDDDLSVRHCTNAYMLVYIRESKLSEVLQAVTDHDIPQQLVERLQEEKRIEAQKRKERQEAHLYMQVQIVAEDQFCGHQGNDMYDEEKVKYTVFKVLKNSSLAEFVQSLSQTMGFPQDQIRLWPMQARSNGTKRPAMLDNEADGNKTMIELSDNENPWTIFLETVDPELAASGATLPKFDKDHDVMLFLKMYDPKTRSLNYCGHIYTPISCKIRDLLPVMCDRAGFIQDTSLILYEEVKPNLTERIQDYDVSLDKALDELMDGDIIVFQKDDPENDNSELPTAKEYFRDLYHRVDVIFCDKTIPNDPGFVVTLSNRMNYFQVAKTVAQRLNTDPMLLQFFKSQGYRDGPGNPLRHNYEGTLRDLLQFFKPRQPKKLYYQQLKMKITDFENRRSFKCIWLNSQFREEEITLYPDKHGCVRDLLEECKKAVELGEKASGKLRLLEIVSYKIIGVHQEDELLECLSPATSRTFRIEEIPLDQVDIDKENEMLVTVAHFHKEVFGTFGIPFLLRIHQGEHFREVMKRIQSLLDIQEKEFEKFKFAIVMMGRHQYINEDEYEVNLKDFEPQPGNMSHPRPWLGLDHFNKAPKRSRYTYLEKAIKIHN

In general, IC50 refers to the midpoint of a concentration-inhibition curve. Take `Cc1cc(Cl)cc(-c2ccnc3cc(Cn4c(=O)ccn(CC(F)(F)F)c4=O)sc23)c1O[C@@H]1CNCC[C@@H]1C` [Example 337, 3-[[7-[5-chloro-3-methyl-2-[[(3S,4S)-4-methyl-3-piperidyl]oxy]phenyl]thieno[3,2-b]pyridin-2-yl]methyl]-1-(2,2,2-trifluoroethyl)pyrimidine-2,4-dione]: the IC50 under setting [1] is under 1000 nM. The same measure, in the same setting: with `Cc1cc(Cl)cc(-c2ncnc3cc(CN4C(=O)C5CCCN5C4=O)sc23)c1O[C@@H]1CNC[C@@H]1F` (stereo partly drawn) [Example 160, 2-((4-(5-Chloro-2-(((3R,4S)-4-fluoropyrrolidin-3-yl)oxy)-3-methylphenyl)thieno[3,2-d]pyrimidin-6-yl)methyl)tetrahydro-1H-pyrrolo[1,2-c]imidazole-1,3(2H)-dione] the figure was 1000 to 10000 nM. Turning to `Cc1cc(Cl)cc(-c2ccnc3cc(Cn4c(=O)ccn(CC(F)(F)F)c4=O)sc23)c1OC1CC(N2CC(O)C2)C1` (stereo not shown) [Example 700, 3-[[7-[5-chloro-2-[3-(3-hydroxyazetidin-1-yl)cyclobutoxy]-3-methyl-phenyl]thieno[3,2-b]pyridin-2-yl]methyl]-1-(2,2,2-trifluoroethyl)pyrimidine-2,4-dione; 2,2,2-trifluoroacetic acid], the IC50 (30-minute incubation, read-out: Potency (USP7 IC50)) was under 1000 nM. On to `Cc1cc(Cl)cc(-c2ncnc3cc(CN4C(=O)c5ccccc5C4=O)sc23)c1O[C@@H]1CNC[C@@H]1F` [Example 149, 2-((4-(5-Chloro-2-(((3R,4S)-4-fluoropyrrolidin-3-yl)oxy)-3-methylphenyl)thieno[3,2-d]pyrimidin-6-yl)methyl)isoindoline-1,3-dione], for which, under setting [1], the IC50 was under 1000 nM. On the same count and under the same terms, with `Cc1cc(Cl)cc(-c2ccnc3cc(CCOC4=NS(=O)(=O)c5ccccc54)sc23)c1O[C@@H]1CNC[C@@H]1F` [Example 140, 3-(2-(7-(5-Chloro-2-(((3R,4S)-4-fluoropyrrolidin-3-yl)oxy)-3-methylphenyl)thieno[3,2-b]pyridin-2-yl)ethoxy)benzo[d]isothiazole 1,1-dioxide] the figure was 10000 to 30000 nM.

In the case of “1-(7-(2-((3-Azabicyclo[3.1.0]hexan-6-yl)methoxy)-5-chloro-3-methylphenyl)thieno[3,2-b]pyridin-2-yl)propan-1-ol [Example 88]”, under setting [1], the half-maximal inhibitory concentration (IC50) fell in the range of 10000 to 30000 nM. Take `Cc1cc(Cl)cc(-c2ccnc3cc(Cn4c(=O)ccn(CC(F)(F)F)c4=O)sc23)c1O[C@@H]1CNC[C@@H]1C(F)F` [Example 620, 3-[[7-[5-chloro-2-[(3S,4S)-4-(difluoromethyl)pyrrolidin-3-yl]oxy-3-methyl-phenyl]thieno[3,2-b]pyridin-2-yl]methyl]-1-(2,2,2-trifluoroethyl)pyrimidine-2,4-dione]: the IC50 under setting [2] was under 1000 nM. Turning to `Cc1cc(Cl)cc(-c2ccnc3cc(CN4C(=O)C(C)C(C)C4=O)sc23)c1O[C@H]1CCCNC1` (stereo partly drawn) [Example 296, 1-[[7-[5-chloro-3-methyl-2-[[(3S)-3-piperidyl]oxy]phenyl]thieno[3,2-b]pyridin-2-yl]methyl]-3,4-dimethyl-pyrrolidine-2,5-dione; 2,2,2-trifluoroacetic acid], the IC50 under setting [1] is under 1000 nM. As for `Cc1cc(Cl)cc(-c2ccnc3cc(Cn4c(=O)ccn(CC(F)(F)F)c4=O)sc23)c1O[C@@H]1CN[C@@H](C(C)(C)O)C1` [Example 635, 3-[[7-[5-chloro-2-[(3S,5R)-5-(1-hydroxy-1-methyl-ethyl)pyrrolidin-3-yl]oxy-3-methyl-phenyl]thieno[3,2-b]pyridin-2-yl]methyl]-1-(2,2,2-trifluoroethyl)pyrimidine-2,4-dione], the IC50 under setting [2] was under 1000 nM. For `Cc1cc(Cl)cc(-c2ccnc3cc(CN4C(=O)CCC4=O)sc23)c1O[C@@H]1CNC[C@@H]1C(F)F` [Example 111, 1-((7-(5-Chloro-2-(((3S,4S)-4-(difluoromethyl)pyrrolidin-3-yl)oxy)-3-methylphenyl)thieno[3,2-b]pyridin-2-yl)methyl)pyrrolidine-2,5-dione], the IC50 under setting [1] was under 1000 nM.
